From ChEMBL document CHEMBL3763036, “Structural optimization of non-nucleoside DNA methyltransferase inhibitor as anti-cancer agent” (Bioorg Med Chem Lett, 2016)

How the values were obtained:
NCI-H292 = assay: Antiproliferative activity against human NCI-H292 cells; type: functional, cell-based
[1] = molecular target: DNA (cytosine-5)-methyltransferase 1 (Homo sapiens) (UniProt P26358); assay: Inhibition of DNMT1 in human NCI-H292 cells at 100 uM after 48 hrs by Western blot analysis relative to control; type: cell-based
[2] = molecular target: DNA (cytosine-5)-methyltransferase 1 (Homo sapiens) (UniProt P26358); assay: Inhibition of DNMT1 in human NCI-H292 cells at 50 uM after 48 hrs by Western blot analysis relative to control; type: cell-based

Sequence of DNA (cytosine-5)-methyltransferase 1 (Homo sapiens) (P26358 whole entry): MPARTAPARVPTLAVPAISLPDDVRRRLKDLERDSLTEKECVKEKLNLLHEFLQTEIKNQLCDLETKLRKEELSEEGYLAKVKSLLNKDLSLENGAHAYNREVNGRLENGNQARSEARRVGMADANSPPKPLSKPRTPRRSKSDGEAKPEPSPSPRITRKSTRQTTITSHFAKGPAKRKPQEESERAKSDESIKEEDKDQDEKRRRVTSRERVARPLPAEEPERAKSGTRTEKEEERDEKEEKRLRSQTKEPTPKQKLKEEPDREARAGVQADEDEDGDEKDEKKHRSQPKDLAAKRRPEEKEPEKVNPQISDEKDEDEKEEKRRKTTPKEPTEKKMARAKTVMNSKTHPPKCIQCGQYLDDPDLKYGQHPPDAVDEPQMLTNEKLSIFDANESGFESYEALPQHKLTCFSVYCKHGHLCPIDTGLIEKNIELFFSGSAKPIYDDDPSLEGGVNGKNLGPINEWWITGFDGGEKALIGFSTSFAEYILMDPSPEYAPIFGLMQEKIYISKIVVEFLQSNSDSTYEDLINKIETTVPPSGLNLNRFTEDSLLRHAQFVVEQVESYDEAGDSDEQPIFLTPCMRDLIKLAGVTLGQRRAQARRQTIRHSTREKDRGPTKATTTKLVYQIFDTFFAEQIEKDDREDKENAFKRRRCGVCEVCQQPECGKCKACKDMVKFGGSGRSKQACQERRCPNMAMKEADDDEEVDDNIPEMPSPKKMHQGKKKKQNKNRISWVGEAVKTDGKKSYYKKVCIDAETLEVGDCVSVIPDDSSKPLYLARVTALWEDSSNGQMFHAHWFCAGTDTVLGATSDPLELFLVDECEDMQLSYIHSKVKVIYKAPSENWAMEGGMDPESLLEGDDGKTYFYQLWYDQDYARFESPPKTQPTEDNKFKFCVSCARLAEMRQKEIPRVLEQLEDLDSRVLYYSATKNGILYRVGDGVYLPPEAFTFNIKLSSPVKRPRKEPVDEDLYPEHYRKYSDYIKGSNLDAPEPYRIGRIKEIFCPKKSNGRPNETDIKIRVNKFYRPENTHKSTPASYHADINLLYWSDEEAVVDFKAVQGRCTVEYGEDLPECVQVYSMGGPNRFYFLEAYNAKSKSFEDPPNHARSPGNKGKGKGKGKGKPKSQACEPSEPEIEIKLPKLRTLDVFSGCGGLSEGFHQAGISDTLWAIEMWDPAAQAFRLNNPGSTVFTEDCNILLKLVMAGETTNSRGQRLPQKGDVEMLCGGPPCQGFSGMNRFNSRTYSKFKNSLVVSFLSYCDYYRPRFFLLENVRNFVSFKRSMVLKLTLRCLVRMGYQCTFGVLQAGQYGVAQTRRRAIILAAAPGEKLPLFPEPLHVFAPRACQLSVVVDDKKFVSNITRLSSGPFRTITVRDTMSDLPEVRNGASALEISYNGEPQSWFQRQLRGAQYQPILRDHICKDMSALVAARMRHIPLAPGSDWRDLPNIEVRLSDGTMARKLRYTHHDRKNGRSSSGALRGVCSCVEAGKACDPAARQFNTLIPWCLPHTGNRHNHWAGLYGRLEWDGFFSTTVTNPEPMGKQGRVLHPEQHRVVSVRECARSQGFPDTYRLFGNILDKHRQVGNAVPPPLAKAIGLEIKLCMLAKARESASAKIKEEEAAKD

| IC50 (NCI-H292) [µM] | fold change (FC) [1] | fold change (FC) [2] | SMILES |
| --- | --- | --- | --- |
| > 200 | – | – | CCOC(=O)c1ccc(N2C(=O)N/C(=C\c3ccc(O)cc3)C2=O)cc1 |
| > 200 | – | – | O=C(O)c1cccc(N2C(=O)N/C(=C\c3ccc(O)cc3)C2=O)c1 |
| 41.3 | 1.08 | – | O=C1N/C(=C\c2ccc(O)cc2)C(=O)N1c1ccc(Cl)cc1 |
| > 200 | – | – | COc1cccc(N2C(=O)N/C(=C\c3ccc(O)cc3)C2=O)c1 |
| > 200 | – | – | Cc1cccc(N2C(=O)N/C(=C\c3ccc(O)cc3)C2=O)c1 |
| > 200 | – | – | O=C1N/C(=C\c2ccc3ccccc3c2)C(=O)N1c1ccc(Cl)cc1 |
| > 200 | – | – | O=C1N/C(=C\c2ccc(O)cc2)C(=O)N1c1cccc(Br)c1 |
| > 200 | – | – | O=C(O)c1ccc(N2C(=O)N/C(=C\c3ccc(O)cc3)C2=O)cc1 |
| > 200 | – | – | COc1ccc(N2C(=O)N/C(=C\c3ccc(O)cc3)C2=O)cc1 |
| 28.5 | – | – | O=C1/C(=C/c2ccc(O)cc2)NC(=S)N1c1ccc(Cl)cc1 |
| > 200 | – | – | O=C(c1ccc(N2C(=O)N/C(=C\c3ccc(O)cc3)C2=O)cc1)N1CCCC1 |
| 35.6 | – | 0.99 | O=C1N/C(=C\c2ccc(Cl)cc2)C(=O)N1c1ccc(Cl)cc1 |
| 69.9 | – | – | O=C1N/C(=C\c2ccc(O)cc2)C(=O)N1c1ccc(Br)cc1 |
| 27.9 | – | 0.32 | Cc1ccc(N2C(=O)N/C(=C\c3ccc(O)cc3)C2=O)cc1 |
| 46.6 | – | – | O=C1N/C(=C\c2ccc(Br)cc2)C(=O)N1c1ccc(Cl)cc1 |
| 19.7 | – | – | O=C1/C(=C/c2ccc(O)cc2)NC(=S)N1c1ccc(I)cc1 |
| 17.9 | – | 0.25 | O=C(NCC1CCCCC1)c1cccc(N2C(=O)N/C(=C\c3ccc(O)cc3)C2=O)c1 |
| > 200 | – | – | O=C(NCc1ccccc1)c1ccc(N2C(=O)N/C(=C\c3ccc(O)cc3)C2=O)cc1 |
| > 200 | – | – | O=C(Nc1ccc(Cl)cc1)c1ccc(N2C(=O)N/C(=C\c3ccc(O)cc3)C2=O)cc1 |
| 32.1 | – | 1.19 | COc1ccc(/C=C2\NC(=O)N(c3ccc(Cl)cc3)C2=O)cc1 |
| > 200 | – | – | O=C(c1cccc(N2C(=O)N/C(=C\c3ccc(O)cc3)C2=O)c1)N1CCCC1 |
| > 200 | – | – | O=C(NCC1CCCCC1)c1ccc(N2C(=O)N/C(=C\c3ccc(O)cc3)C2=O)cc1 |
| > 200 | – | – | COc1cc(/C=C2\NC(=O)N(c3ccc(Cl)cc3)C2=O)cc(OC)c1OC |
| > 200 | – | – | O=C1N/C(=C\c2ccc(O)cc2)C(=O)N1c1cccc(I)c1 |
| 23.5 | – | 0.27 | O=C(NCc1ccccc1)c1cccc(N2C(=O)N/C(=C\c3ccc(O)cc3)C2=O)c1 |
| 25.5 | – | 0.01 | O=C1N/C(=C\c2ccc(O)cc2)C(=O)N1c1ccc(I)cc1 |
| 125 | – | – | O=C(Nc1ccc(Cl)cc1)c1cccc(N2C(=O)N/C(=C\c3ccc(O)cc3)C2=O)c1 |
